Experimental data reported in patent US20250228242A1 (priority 2021, published 2025).
Where a name gives a salt, the structure may show the parent alone.

Key:
P. infestans = experiment: whole plant or invertebrate; format: in vivo; details: Phytophthora infestans, in Solanum tuberosum, read-out: P. infestans % inhibition
Phakopsora pachyrhizi = experiment: Soybean rust on soybean (Glycine max) leaves, syringe infiltration of compound, visual scoring; format: in vivo; details: 100 μM in 1% DMSO syringe infiltrated into adult G. max, visually scored at nine dpi, read-out: P. pachyrhizi Inhibitory effect
Description: Soybean plants were grown from pregerminated soybeans by putting them 1 cm deep into soil (Einheitserde type A240, Stender, Germany). Plants were grown in growth cabinets (16h light at 400 μM/m^2s and 22-24° C.-8h dark at 21-22° C.). 14 days after soil planting, plants were used for infection and experiments. Following inoculation with rust spores, plants were transferred back to growth cabinet prior to symptom screening.
Infiltration was always done through somata at the lower site of the leaf under light conditions to ensure stomata are open. Afterwards, the plants were kept in the growth cabinet for ˜1 h to let the leaves equilibrate again. The infiltrated plants were inoculated with Soybean rust spores using an airbrush and 0.01% Tween20 to ensure homogenous wetting. Plants were afterwards incubated for 24h in the dark at 24° C. and 100% humidity. At 9 dpi, infiltrated leaves were phenotypically scored.
• Fungicidal activity against Soybean rust was tested using a highly virulent stain of Phakopsora pachyrhizi and commercially available Soybeans.
The test compounds, […] 100 μM in 1% DMSO, were syringe infiltrated into adult G. max plants and subsequently sprayed with aqueous spore solutions and 0.01% Tween. In primary screenings, disease severity was visually screened and scored at nine days post infection (dpi) (Table 8).

SMILES	inhibition at 100 µM (P. infestans)	inhibition at 100 µM (Phakopsora pachyrhizi)
O=C(c1ccc(-c2cc(-c3ccc(F)cc3)[nH]n2)cc1)N1CCOCC1 [Compound 143, {4-[5-(4-Fluorophenyl)-1H-pyrazol-3-yl]phenyl}(morpholin-4-yl)methanone]	94%	5 to 30%
CCc1ccc(-c2cc(-c3cccc(NC(=O)[C@@H](N)CO)c3)[nH]n2)cc1 [Compound 129, (2S)-2-Amino-N-{3-[3-(4-ethylphenyl)-1H-pyrazol-5-yl]phenyl}-3-hydroxypropanamide hydrochloride]	97%	> 70%
